Experimental data taken from ChEMBL document CHEMBL4725230, “Syntheses and pharmacokinetic evaluations of four metabolites of 2-(4-(2-((1H-benzo[d]imidazol-2-yl)thio)ethyl)piperazin-1-yl)-N-(6-methyl-2,4-bis-(methylthio)pyridin-3-yl)acetamide hydrochloride [K-604], an acyl-CoA:cholesterol O-acyltransferase-1 inhibitor” (Bioorg Med Chem, 2020).

Assay: Retention time of the compound in human liver microsomes after 5 mins in presence of NADPH by LC-MS/MS analysis
Format: ADME, Microsome

| Structure (SMILES) | Retention_time |
| --- | --- |
| CSc1cc(C)nc([S+](C)[O-])c1NC(=O)CN1CCN(CCSc2nc3ccccc3[nH]2)CC1 (configuration not stated) | 2.73 min |
| CSc1cc(C)nc(SC)c1NC(=O)CN1CCN(CCSc2nc3cc(O)ccc3[nH]2)CC1 | 3.21 min |
